Results on three compounds are retold here after patent US12329738B2, “Urolithin A and a composition containing same for external use in inflammations of various etiologies” (WARSZAWSKI UNIWERSYTET MEDYCZNY, priority 2018, dated 2025).

The subject of test [1] is NHDF fibroblasts (human normal skin fibroblasts). The following applies: comparative studies by the inventors. How it is done: NHDF fibroblasts (human normal skin fibroblasts) were cultured in the DMEM medium supplemented with 10% FBS and a mixture of antibiotics—penicillin and streptomycin at 37° C., 5% CO2. […] After incubation with the compounds, the cells were washed twice with warm medium. The effect on cell viability was assessed using a standard MTT test.

In test [2] the test system is TNF-alpha. The test is described as follows: TNF-alpha production by macrophages from human peripheral blood monocytes (ELISA). Format: cell-based. The following applies: 40 μM; LPS 100 ng/mL, 24 h; FIG. 16.
Description: Monocytes were isolated from peripheral human blood by a standard method using dextran sedimentation and Ficoll Hypaque gradient centrifugation. After isolation, monocytes were suspended in RPMI 1640 medium supplemented with L-glutamine, HEPES, streptomycin, amphotericin and gentamicin, and 20% autologous serum. Cell culture was carried out under these conditions for 7 days. […] After 24h, TNF-alpha level in the medium was determined using the immunochemical ELISA method (BD biosciences). The obtained results of experiments on in vitro models were analyzed using the Statistica 13 program (StatSoft, Inc., Tulsa, OK, USA) and presented as mean values±SEM. Statistical significance was set at P≤0.05. The results with established normal distribution in the D'Agostin and Pearson test were prepared using analysis of variance (ANOVA). Parametric post-hoc analysis was performed using Dunnett's test.
For the next test, the target named is T1, tyrosinase (Mus musculus, UniProt P11344).
T1 sequence (P11344 19-533): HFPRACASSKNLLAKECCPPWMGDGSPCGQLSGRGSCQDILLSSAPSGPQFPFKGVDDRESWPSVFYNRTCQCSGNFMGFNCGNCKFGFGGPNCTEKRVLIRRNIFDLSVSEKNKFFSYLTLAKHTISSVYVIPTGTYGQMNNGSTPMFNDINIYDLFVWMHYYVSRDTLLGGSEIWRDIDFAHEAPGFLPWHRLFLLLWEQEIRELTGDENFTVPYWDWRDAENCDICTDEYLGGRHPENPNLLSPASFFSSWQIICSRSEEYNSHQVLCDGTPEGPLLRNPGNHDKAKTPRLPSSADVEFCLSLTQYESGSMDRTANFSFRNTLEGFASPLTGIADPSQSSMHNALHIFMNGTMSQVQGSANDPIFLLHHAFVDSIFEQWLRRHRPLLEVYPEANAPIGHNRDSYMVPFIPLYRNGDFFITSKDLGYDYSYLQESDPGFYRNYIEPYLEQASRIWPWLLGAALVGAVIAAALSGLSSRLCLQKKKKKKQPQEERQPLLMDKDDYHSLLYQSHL
Particulars: B16 melanoma cells; cited from earlier work.

Another test relates to ERK1/2. The test is described as follows: ERK1/2 phosphorylation in THP-1 derived macrophages (Western blotting). The following applies: 40 μM; LPS 10 ng/mL, 35 min; FIG. 15. In kind it is cell-based, human. How it is done: Monocytes of the THP-1 line were cultured in RPMI 1640 medium supplemented with 10% FBS and 2 mM glutamine. For transformation of monocytes into macrophages, the cells were treated with 12.5 ng/mL PMA (phorbol 12-myristate 13-acetate) for 48 hours, then washed and incubated for 24 hours in a culture medium without PMA. After this time, urolithin A, urolithin B, iso-urolithin A and the corresponding glucuronides (GUA, GUB and GiUA) were added to the cells at a concentration of 40 μM. After 1 hour of incubation with the compounds, the cells were stimulated with LPS from Escherichia coli (10 ng/mL). To assess the level of TNF-alpha production, the cells were incubated for 6 hours, to assess the expression of mRNA for TNF-alpha, the cells were incubated for 24 hours, to assess the effect on ERK1/2 phosphorylation, the cells were incubated for 35 minutes. […] The obtained results of experiments on in vitro models were analyzed using the Statistica 13 program (StatSoft, Inc., Tulsa, OK, USA) and presented as mean values±SEM. Statistical significance was set at P≤0.05. The results with established normal distribution in the D'Agostin and Pearson test were prepared using analysis of variance (ANOVA). Parametric post-hoc analysis was performed using Dunnett's test.
(In western blotting, separated proteins are transferred to a membrane and probed.)

The test system of another test is mRNA for TNF-alpha. Nature of the test: TNF-alpha mRNA expression in THP-1 derived macrophages (real time PCR). In kind it is cell-based, human. The following applies: 40 μM; LPS stimulation; FIG. 14. The protocol: (§1) Monocytes of the THP-1 line were cultured in RPMI 1640 medium supplemented with 10% FBS and 2 mM glutamine. For transformation of monocytes into macrophages, the cells were treated with 12.5 ng/mL PMA (phorbol 12-myristate 13-acetate) for 48 hours, then washed and incubated for 24 hours in a culture medium without PMA. After this time, urolithin A, urolithin B, iso-urolithin A and the corresponding glucuronides (GUA, GUB and GiUA) were added to the cells at a concentration of 40 μM. After 1 hour of incubation with the compounds, the cells were stimulated with LPS from Escherichia coli (10 ng/mL).
(§2) To assess the level of TNF-alpha production, the cells were incubated for 6 hours, to assess the expression of mRNA for TNF-alpha, the cells were incubated for 24 hours, to assess the effect on ERK1/2 phosphorylation, the cells were incubated for 35 minutes.
(§3) The level of TNF-alpha in the culture medium was determined using the immunochemical ELISA method (BD biosciences). Evaluation of the expression of mRNA for TNF-alpha was performed using real time PCR. After 24 hours of incubation, RNA was isolated using NucleoSpin RNA Clean-up (Macherey-Nagel). The amount and quality of isolated RNA was determined using 2100 Bioanalyzer (Agilent Technologies). The expression level of mRNA for TNF-α was determined using Brilliant II SYBR Green QPCR Kit and Aria Mx Real-Time PCR thermocycler (Agilent Technologies). The following were used as primers for TNF-alpha: forward: 5′-[…]-3′, reverse: 5′-[…]-3′. Beta-actin (ACTB) was used as the housekeeping gene; primer forward: 5′-[…]-3′, reverse: 5′-[…]-3′).
(§4) The obtained results of experiments on in vitro models were analyzed using the Statistica 13 program (StatSoft, Inc., Tulsa, OK, USA) and presented as mean values±SEM. Statistical significance was set at P≤0.05. The results with established normal distribution in the D'Agostin and Pearson test were prepared using analysis of variance (ANOVA). Parametric post-hoc analysis was performed using Dunnett's test.

The test system of test [3] is TNF-alpha. Nature of the test: TNF-alpha production by THP-1 derived macrophages (ELISA). Format: cell-based, human. The following applies: 40 μM; LPS stimulation; FIG. 13. The protocol:
as §1, §2, §3, §4
In general terms: ELISA stands for enzyme-linked immunosorbent assay.

In the case of `CC(=O)Oc1ccc2c(c1)oc(=O)c1cc(O)ccc12` [3-acetyl-urolithin A], the “Antiproliferative activity on human skin fibroblast cells” value in test [1] is recorded as “neither urolithin A, nor 8-acetyl-urolithin A, nor 3-acetyl-urolithin A showed antiproliferative activity”.

For the compound `CC(=O)Oc1ccc2c(c1)c(=O)oc1cc(O)ccc12` [8-acetyl-urolithin A], the “Antiproliferative activity on human skin fibroblast cells” value in test [1] was “neither urolithin A, nor 8-acetyl-urolithin A, nor 3-acetyl-urolithin A showed antiproliferative activity”.

With `O=c1oc2cc(O)ccc2c2ccccc12` [urolithin B], the “Inhibition of TNF-alpha production by macrophages from human peripheral blood monocytes” value with TNF-alpha [2] was “inactive”. On tyrosinase, the “Tyrosinase activity (depigmentation)” value was “suppressing tyrosinase activity”. Moreover, in the test on ERK1/2, the “ERK1/2 kinase phosphorylation in THP-1 derived macrophages” value is “did not exhibit such activity”. In the test with mRNA for TNF-alpha, the “TNF-alpha mRNA expression in THP-1 derived macrophages” value is “inactive”. In addition, the “TNF-alpha production by THP-1 derived macrophages” value in the test on TNF-alpha [3] is listed as “did not show any activity”.
